Experimental data reported in patent US9180088B2, “Fulvestrant formulations” (SCIDOSE, LLC, priority 2008, dated 2015).
≈ marks a conversion by molar mass, not a printed value.

How the values were obtained:
[1] = solubility of fulvestrant in solvents; type: physicochemical
subplanar paw of the rat = experiment: rat paw lick test; type: in vivo; details: 0.1 ml of solvent system injected on the subplanar paw of the rat
Protocol: In this method 0.1 ml of the solvent system is injected on the subplanar paw of the rat and the irritation is measured by the number of time that rat licks its paw over 15 minutes. This is quite quantitative and the number licks correlate to the irritation of the system.

Question: For `C[C@]12CC[C@@H]3c4ccc(O)cc4C[C@@H](CCCCCCCCC[S+]([O-])CCCC(F)(F)C(F)(F)F)[C@H]3[C@@H]1CC[C@@H]2O` (stereo partly drawn) [fulvestrant, 7-alpha-[9-(4,4,5,5,5-pentafluoropentylsulphinyl)nonyl]estra-1,3,5-(10)-triene-3,17-beta-diol], which solubility ([1]; 20 mg/ml Lutrol in PEG 400 (2% Lutrol in PEG 400), organic solvent or mixture, in 20 mg/ml of Lutrol in PEG 400 (2% Lutrol in PEG 400)) is on record?
Answer: The solubility was 66.7 mg/mL (≈ 110 mM).

Question: What about the solubility ([1]; 20 mg/ml Lutrol in propylene glycol, organic solvent or mixture, in 20 mg/ml of Lutrol in PG) of the same compound?
Answer: Its solubility is 22.7 mg/mL (≈ 37.4 mM).

Question: What about the solubility ([1]; 1,4-dioxane, organic solvent or mixture, in 1,4 Dioxan) of the same compound?
Answer: The solubility was 833 mg/mL (≈ 1370 mM).

Question: What about the solubility ([1]; 10% ethanol/0.9% benzyl alcohol/30% PEG 400 in water (v/v), aqueous with cosolvent or surfactant or cyclodextrin, in 10% Ethanol/0.9% Benzylalcohol/30% PEG 400 in Water (v/v)) of the same compound?
Answer: Its solubility is 10 mg/mL (≈ 16.5 mM).

Question: What about the solubility ([1]; 20-50 mg/ml Lutrol in dihydrolipoic acid, organic solvent or mixture, in 20-50 mg/ml Lutrol in dihydrolipoic acid) of the same compound?
Answer: The solubility was over 350 mg/mL.

Question: What about the solubility ([1]; 50% dihydrolipoic acid/50% lipoic acid, organic solvent or mixture, in 50% dihydrolipoic acid/50% lipoic acid) of the same compound?
Answer: Its solubility is over 350 mg/mL.

Question: What about the solubility ([1]; Lutrol/PEG400/propylene glycol blends, organic solvent or mixture, in the Lutrol/PEG400/propylene glycol blends) of the same compound?
Answer: Its solubility is 50 mg/mL (≈ 82.4 mM).

Question: And the solubility ([1]; N-methylpyrrolidone, organic solvent or mixture, in N-Methylpyrrolidone)?
Answer: Its solubility is 864 mg/mL (≈ 1420 mM).

Question: And the solubility ([1]; PEG 400 + propylene glycol (1:1), organic solvent or mixture, in PEG 400 + PG (1:1))?
Answer: Its solubility is 50 mg/mL.

Question: And the solubility ([1]; PEG-400 (neat), organic solvent or mixture, in PEG-400 (neat))?
Answer: Its solubility is 22.5 mg/mL (≈ 37.1 mM).

Question: What about the solubility ([1]; aqueous with cosolvent or surfactant or cyclodextrin, in 10% Ethanol/0.9% Benzylalcohol/30% PEG 400/20 mg per ml Lecithin, in Water) of the same compound?
Answer: The solubility was 5 mg/mL (≈ 8.24 mM).

Question: And the solubility ([1]; dihydrolipoic acid, organic solvent or mixture, in Dihydrolipoic acid)?
Answer: The solubility was over 450 mg/mL.

Question: What about the solubility ([1]; ethyl acetate, organic solvent or mixture, in Ethyl acetate) of the same compound?
Answer: Its solubility is 7.8 mg/mL (≈ 12.9 mM).

Question: What about the solubility ([1]; glycofurol, organic solvent or mixture, in Glycofurol) of the same compound?
Answer: Its solubility is 400 mg/mL (≈ 659 mM).

Question: What about the solubility of fulvestrant ([1]; in 0.9% Benzyl alcohol in Water) of the same compound?
Answer: Its solubility of fulvestrant is “Insoluble”.

Question: And the solubility of fulvestrant ([1]; in 2% Benzyl alcohol in Water)?
Answer: Its solubility of fulvestrant is “Insoluble”.

Question: What about the solubility of fulvestrant ([1]; in 10% Ethanol) of the same compound?
Answer: The solubility of fulvestrant was “Insoluble”.

Question: What about the solubility of fulvestrant ([1]; in 10% Ethanol (in water) + PEG 400 (1:1)) of the same compound?
Answer: The solubility of fulvestrant was “Insoluble”.

Question: And the solubility of fulvestrant ([1]; in 30% Ethanol (in water))?
Answer: The solubility of fulvestrant was “Insoluble”.

Question: What about the solubility of fulvestrant ([1]; in 50% Ethanol (in water)) of the same compound?
Answer: The solubility of fulvestrant was “Insoluble”.

Question: And the solubility of fulvestrant ([1]; in Aq.PVP K-30 solution (40 mg in 2 ml distil water))?
Answer: Its solubility of fulvestrant is “Insoluble”.

Question: What about the solubility of fulvestrant ([1]; in Cetylalcohol) of the same compound?
Answer: Its solubility of fulvestrant is 20 mg/1 g.

Question: And the solubility of fulvestrant ([1]; in Fat emulsion)?
Answer: The solubility of fulvestrant was “Insoluble”.

Question: What about the solubility of fulvestrant ([1]; in Hydroxy Ethyl Starch (10%)) of the same compound?
Answer: Its solubility of fulvestrant is “Insoluble”.

Question: And the solubility of fulvestrant ([1]; in Lauryl macrogol - 32 glyceride (Gelucire 44/14 by Gattefosse))?
Answer: Its solubility of fulvestrant is “Insoluble”.

Question: What about the solubility of fulvestrant ([1]; in Lecithin (1%)) of the same compound?
Answer: The solubility of fulvestrant was “Insoluble”.

Question: What about the solubility of fulvestrant ([1]; in Peanut Oil) of the same compound?
Answer: Its solubility of fulvestrant is “Insoluble”.

Question: What about the solubility of fulvestrant ([1]; in Poloxamer(Lutrol f-68) (2% sol in water)) of the same compound?
Answer: Its solubility of fulvestrant is “Insoluble”.

Question: And the solubility of fulvestrant ([1]; in Sodium Citrate (30 Mmol))?
Answer: Its solubility of fulvestrant is “Insoluble”.

Question: What about the solubility of fulvestrant ([1]; in TPGS 1000) of the same compound?
Answer: Its solubility of fulvestrant is “Insoluble”.

Question: And the solubility of fulvestrant ([1]; in Tween 20 (1%))?
Answer: The solubility of fulvestrant was “Insoluble”.

Question: What about the solubility of fulvestrant ([1]; in Tween 80 (1%)) of the same compound?
Answer: Its solubility of fulvestrant is “Insoluble”.

Question: And the solubility ([1]; organic solvent or mixture, in 0.7 ml of (20 mg/ml of Lutrol in PEG 400) + 0.3 ml of Propylene Glycol)?
Answer: The solubility was 50 mg/mL.

Question: And the solubility ([1]; organic solvent or mixture, in 0.8 ml of (20 mg/ml of Lutrol in PEG 400) + 0.2 ml of Propylene Glycol)?
Answer: The solubility was 50 mg/mL.

Question: And the solubility ([1]; organic solvent or mixture, in 10% Ethanol/0.9% Benzylalcohol in PEG 400 (V/V, QS with PEG 400))?
Answer: Its solubility is 10 mg/mL (≈ 16.5 mM).

Question: What about the solubility ([1]; propylene glycol (neat), organic solvent or mixture, in Propylene Glycol (neat)) of the same compound?
Answer: Its solubility is 4 mg/mL (≈ 6.59 mM).

Question: What about the solubility ([1]; t-butanol, organic solvent or mixture, in T-butanol) of the same compound?
Answer: The solubility was 194 mg/mL (≈ 320 mM).

Question: With Glycofurol [Test # 02] as the compound, how does the “IRRITABILITY (rating)” value (subplanar paw of the rat) read?
Answer: Its value is “No Irritation”.

Question: What about the “number of times rat licks its paw in first 15 minutes” value (subplanar paw of the rat; 15 minutes) of the same compound?
Answer: Its value is “Zero lick in first 15 minutes”.
